Data on 4 compounds can be found in patent publication US11970483B2, “Heterocyclic compound” (Takeda Pharmaceutical Company Limited, priority 2018, dated 2024).

One series addresses T1, MDR1 (Homo sapiens, UniProt P08183).
T1 construct: expressed in transfected cells; host or cells: LLC-PK1 cells (porcine kidney)
Briefly: MDR1 membrane permeability test. It is filed as in vitro ADME. Particulars: human MDR1-expressing LLC-PK1 cells, 10 μmol/L test compound, pH 7.4, read-out: Efflux ratio (ER). Here is the method:
MDR1 membrane permeability test
When MDR1 is expressed in excess in LLC-PK1 cell, which is a polar cell, MDR1 is localized in apical membrane (A), thus promoting transcellular transport from the basement membrane side (B) toward direction A. When a ratio to the transcellular transport in the opposite direction is taken and a ratio to a control cell in which a mock vector has been introduced is further taken, an efflux ratio of MDR1 to simple diffusion (corrected efflux ratio) is calculated. Similarly, when a brain/plasma concentration ratio in Mdr1(−/−) mouse is divided by a brain/plasma concentration ratio in wild-type mouse, an efflux ratio of Mdr1 to simple diffusion in blood-brain barrier (BBB) (Kp, brain ratio, higher value means lower central nervous system permeability) is calculated. Adachi Y. et al. (Reference 1) has reported a positive correlation between corrected efflux ratio and Kp, brain ratio (FIG. 5(C)), and efflux ratio in MDR1 expressing cell and Kp, brain ratio (FIG. 5(B)).
To confirm the central nervous system permeability of the compounds of the present invention, a MDR1 membrane permeability test was performed by the following method.
Digoxin and lucifer yellow (LY) were purchased from Sigma-Aldrich, Diclofenac, colchicine and alprenolol were purchased from Wako Pure Chemical Industries, Ltd., and other reagents used were commercially available products of special grade.
Human MDR1-expressing LLC-PK1 cells were cultured according to the report of Takeuchi et al. (Reference 2). Human MDR1-expressing LLC-PK1 cells were cultured in 10% fetal bovine serum (Invitrogen), 500 μg/ml G418 (Invitrogen), 150 ng/ml colchicine-containing M199 medium (Invitrogen) under 5% CO2 conditions at 37° C.
Transcellular transport was performed according to the report of Sugimoto et al. (Reference 3). The cells were cultured for 3 days on HTS Transwell (registered trademark) 96 well permeable support (pore size 0.4 μm, 0.143 cm^2 surface area, Corning Life Sciences) having polyethylene terephthalate membrane on which the cells had been seeded at 3.45×10^4 cells/well. […] After 1 hr, the sample was collected from the side opposite to the side where the drug solution was added, and the concentration of the test compound was measured by LC-MS/MS. […]
LY was measured by a fluorescence plate reader (Fluoroskan Ascent FL).
Papp, A to B and Papp, B to A (apparent permeability) were calculated from the formula (1), and the efflux ratio (ER) was calculated from the formula (2). […]

Another series deals with Male SD rats. Briefly: Rat defecation experiment. Format: in vivo. As to conditions: oral, mean±standard error. As for the experimental part:
Rat Defecation Experiment
Male SD rats (5-6 weeks old) were used after an acclimation period for about 1 week. A test drug (1 mg/kg or 3 mg/kg) was suspended in 0.5% methylcellulose solution and orally administered at a volume of 5 mL/kg, and the number of feces 2 hr later was counted. Only 0.5% methylcellulose was administered to a solvent administration group.

The structures appear in SMILES notation.

T1 sequence (P08183 whole entry): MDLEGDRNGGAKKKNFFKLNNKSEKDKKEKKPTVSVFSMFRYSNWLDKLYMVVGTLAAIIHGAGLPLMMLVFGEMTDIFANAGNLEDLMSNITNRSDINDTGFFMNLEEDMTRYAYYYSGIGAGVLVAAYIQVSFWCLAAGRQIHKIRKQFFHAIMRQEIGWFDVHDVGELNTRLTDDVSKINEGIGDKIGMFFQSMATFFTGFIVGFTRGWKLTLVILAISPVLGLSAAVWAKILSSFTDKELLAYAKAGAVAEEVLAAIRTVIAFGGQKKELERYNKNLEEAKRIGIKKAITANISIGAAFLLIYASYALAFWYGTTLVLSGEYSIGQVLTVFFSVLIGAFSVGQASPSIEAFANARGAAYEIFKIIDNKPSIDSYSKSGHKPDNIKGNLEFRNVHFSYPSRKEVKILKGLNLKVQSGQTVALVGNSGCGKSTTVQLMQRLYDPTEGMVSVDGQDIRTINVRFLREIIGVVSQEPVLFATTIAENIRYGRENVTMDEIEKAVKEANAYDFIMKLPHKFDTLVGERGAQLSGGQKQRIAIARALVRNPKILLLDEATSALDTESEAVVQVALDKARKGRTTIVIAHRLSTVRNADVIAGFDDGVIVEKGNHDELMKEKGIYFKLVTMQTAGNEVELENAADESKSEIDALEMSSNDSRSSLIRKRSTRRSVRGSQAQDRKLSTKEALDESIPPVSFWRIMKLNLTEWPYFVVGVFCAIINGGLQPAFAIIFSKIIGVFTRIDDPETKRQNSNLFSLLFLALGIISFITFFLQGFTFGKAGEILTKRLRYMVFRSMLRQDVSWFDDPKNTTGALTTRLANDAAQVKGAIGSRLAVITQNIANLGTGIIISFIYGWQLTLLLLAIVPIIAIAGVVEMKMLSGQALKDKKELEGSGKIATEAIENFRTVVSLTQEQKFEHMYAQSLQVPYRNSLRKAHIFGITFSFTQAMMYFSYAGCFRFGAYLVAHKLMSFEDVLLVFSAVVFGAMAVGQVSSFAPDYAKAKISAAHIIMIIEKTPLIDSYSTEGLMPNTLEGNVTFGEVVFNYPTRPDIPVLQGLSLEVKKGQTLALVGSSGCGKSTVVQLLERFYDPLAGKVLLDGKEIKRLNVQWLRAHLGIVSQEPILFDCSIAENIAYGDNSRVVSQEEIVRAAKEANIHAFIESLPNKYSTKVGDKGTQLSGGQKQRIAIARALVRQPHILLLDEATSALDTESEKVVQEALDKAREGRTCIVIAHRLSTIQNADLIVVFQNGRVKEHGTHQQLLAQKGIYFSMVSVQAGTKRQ

For `Cc1c(Cc2ccc(-c3cn(C)nn3)cc2)cc(C(=O)N[C@H]2CCOC[C@@H]2O)c2c1CCO2` [Example 1, 1,5-anhydro-2,3-dideoxy-3-[(4-methyl-5-{[4-(1-methyl-1H-1,2,3-triazol-4-yl)phenyl]methyl}-2,3-dihydro-1-benzofuran-7-carbonyl)amino]-L-threo-pentitol], the efflux ratio at 1 h, 10 μmol/L on MDR1 amounted to 3.

As to `COCCNC(=O)c1ccc(Cc2cc(C(=O)N[C@H]3CCOC[C@@H]3O)c3c(c2C)CCO3)cc1F` [Example 27, 1,5-anhydro-2,3-dideoxy-3-{[5-({3-fluoro-4-[(2-methoxyethyl)carbamoyl]phenyl}methyl)-4-methyl-2,3-dihydro-1-benzofuran-7-carbonyl]amino}-L-threo-pentitol], the efflux ratio at 1 h, 10 μmol/L at MDR1 turned out to be 6.2.

With `Cc1c(Cc2ccc(C(=O)NCC(=O)N(C)C)c(F)c2)cc(C(=O)N[C@H]2CCOC[C@@H]2O)c2c1CCO2` [Example 28, 1,5-anhydro-2,3-dideoxy-3-({5-[(4-{[2-(dimethylamino)-2-oxoethyl]carbamoyl}-3-fluorophenyl)methyl]-4-methyl-2,3-dihydro-1-benzofuran-7-carbonyl}amino)-L-threo-pentitol], the “number of feces 2 hr later” value with Male SD rats (1 mg/kg) is given as 8.0 ± 1.0; in the series with Male SD rats (3 mg/kg) it was 8.1 ± 1.4. Further, the efflux ratio at 1 h, 10 μmol/L at MDR1 came to 12.

Regarding `Cc1c(Cc2ccc(C(=O)NC[C@H]3CCCO3)c(F)c2)cc(C(=O)N[C@H]2CCOC[C@@H]2O)c2c1CCO2` [Example 29, 1,5-anhydro-2,3-dideoxy-3-[(5-{[3-fluoro-4-({[(2R)-oxolan-2-yl]methyl}carbamoyl)phenyl]methyl}-4-methyl-2,3-dihydro-1-benzofuran-7-carbonyl)amino]-L-threo-pentitol], the “number of feces 2 hr later” value in the series on Male SD rats (1 mg/kg) was found to be 5.0 ± 0.8; with Male SD rats (3 mg/kg), 9.0 ± 0.7. For the same compound, the efflux ratio at 1 h, 10 μmol/L on MDR1 came to 6.
